# A melting point compilation (Tetko et al.; mined from patent text by program, amines drawn as free bases though some values may be those of a salt)
row,Structure (SMILES),melting point
1,O=S(=O)(c1ccccc1)c1ccc2cnc(Nc3ccc(N4CCOCC4)cc3)nn12,110 to 115 °C
2,CCOC(=O)Oc1ccc(C=CC(=O)N2CCN(CC(=O)N3CCCC3)CC2)cc1,128 to 130 °C
3,CCCCCCC(=O)CCCC=O,33 to 34 °C
4,C[C@H](Nc1cc(Cl)ccc1[N+](=O)[O-])C(=O)O,167 to 169 °C
5,CCOC(=O)c1csc(-c2ccc3cc4c(cc3c2)C(C)(C)CCC4(C)C)c1,107 to 108 °C
6,COc1ccc(Cl)c2c1[nH]c1c(C(=O)O)cccc12,328 °C
7,O=C(Nc1ccc(-n2nc(C(F)(F)F)cc2C(F)(F)F)cc1)c1cc(F)c(F)cc1F,109 to 111 °C
8,CNC(=O)c1cc2c(cn1)[nH]c1ccccc12,264 to 266 °C
9,Cc1cc(C2=C(c3ccc(S(C)(=O)=O)cc3)C(C)(C)OC2=O)ccc1-c1cscn1,80.3 °C
10,CC(C)c1cccc(-c2ccc(F)cc2)c1O,41 to 43 °C
11,Cc1c(O)noc1C(=O)O,257 to 259 °C
12,Cc1oc(-c2ccccc2)nc1COc1ccc(CN(O)C(=O)NO)cc1,194 to 195 °C
13,COCc1c(C(=O)OC(C)C)ncc2[nH]c3cccc(Oc4ccc(Cl)cc4)c3c12,119 to 120 °C
14,CN1c2ccc([N+](=O)[O-])cc2C(C)(C)C12C=Nc1cc(-c3ccc(N4CCCC4)cc3)c3ccccc3c1O2 (configuration not stated),260 to 262 °C
15,CN(C)c1ccc2cc(Cl)cnc2c1C#N,174 °C
16,CCOC(=O)c1cn(C)c2c(=O)c3cc(Cl)ccc3oc2c1=O,295 to 297 °C
17,Cc1ccc2c(c1)c(CCNC(=O)c1ccccc1)c1n2C(=O)CCC1,171 °C
18,Cc1cccc2[nH]cnc12,141 to 145 °C
19,COc1cnc2sc(S(=O)(=O)Cc3ccccc3)nn2c1=O,204 to 206 °C
20,O=C(CCCN1CCN(c2cc3ccccc3cn2)CC1)c1cccs1,94 to 100 °C
21,Cc1ccccc1-n1cnnc1C(F)(F)F,75 °C
22,COc1cc(C=C(C(C)=O)C(C)=O)cc(OC)c1OC,83 to 86 °C
23,O=C1c2cccc3cc4ccccc4c(c23)C(=O)N1CCNCCCNCCN1C(=O)c2cccc3cc4ccccc4c(c23)C1=O,191 °C
24,CCCCCS(=O)(=O)NC(=O)CCc1ccc(OCCOC)cc1OCC1CC1,81.7 to 82.8 °C

row,Structure (SMILES),melting point
1,CC(=O)c1cccc2cc3ccccc3cc12,106 °C
2,O=C(NN1CCNC1=O)c1cc(=O)c(O)c[nH]1,270 to 275 °C
3,CC(=O)NCc1nc2c(N)nc3ccccc3c2n1CC(C)C,214 to 218 °C
4,CC(C)(C)C(F)(F)c1ccc(C[C@@H](NC(=O)c2ccc(F)c3ccccc23)[C@@H](O)c2cccc(Cl)c2)cc1 (racemic),104 to 106 °C
5,CCC(Oc1ccc2ccccc2c1)C(=O)OC1CC(O)C=C2C=CC(C)C(CCC3CC(O)CC(=O)O3)C21 (mixture of isomers),124 to 127 °C
6,CS(=O)(=O)c1ccc(-c2cnn(Cc3ccccc3)c(=O)c2-c2ccc3c(c2)COC3=O)cc1,> 250 °C
7,Cc1nn2c(CCCOc3ccc(NCCC(=O)O)cc3)n[nH]c2c1Cl,151 to 153 °C
8,O=[N+]([O-])c1ccc2nc3c(nc2c1)N1CCCCC1CO3 (configuration not stated),226 to 229 °C
9,Cc1oc(-c2ccc(C(F)(F)F)cc2)nc1CCl,84 to 85 °C
10,O=C(c1ccc(C2CCCCC2)cc1)c1cccnc1,52 to 54 °C
11,O=C(CN1CCOCC1)Nc1ccc(-n2nc(C3CC3)cc2C2CC2)cc1,178 to 184 °C
12,Cc1ccc2c(Br)c(Br)sc2c1,67.5 to 68.5 °C
13,CON=C1CCc2c(cccc2OCC(O)CN2CCN(C(c3ccccc3)c3ccccc3)CC2)C1 (configuration not stated),> 183 °C
14,CC(C)CCN1N=C(c2ccc(F)cc2)c2cc(Cl)ccc2CS1(=O)=O,123 to 124 °C
15,CCC(C(=O)N(C)C)n1nc(-c2ccccc2)cc1C (configuration not stated),117 to 120 °C
16,COc1ccc(NC(=O)c2ccc(F)cc2)cc1,171 to 172 °C
17,Cc1cc(-c2ccnc(NCc3ccccc3)c2)n(-c2cccc(F)c2)n1,94 to 96 °C
18,CCOC(=O)NC(C)=N,111 to 114 °C
19,c1ccc2cc(-c3scc4c3OCCO4)ccc2c1,208 to 211 °C
20,CS(=O)(=O)c1ccc(N2CCC3(CC2)OCCO3)cc1,192 to 194 °C
21,Cn1cnnc1C(c1ccc(Cl)cc1)c1ccc2c(c1)c(-c1cccc(Cl)c1)nc1nnnn12 (configuration not stated),217 °C
22,OC[C@H]1O[C@@H](n2cnc3c(N[C@@H]4CCN(c5ccc(C(F)(F)F)cn5)C4)ncnc32)[C@H](O)[C@@H]1O,166 to 170 °C
23,CCOC(=O)CC1OC(=O)c2c(Oc3nc(OC)cc(OC)n3)cccc21 (configuration not stated),150 to 152 °C
24,CC(=O)N1CCNC(=O)C1c1ccc(F)cc1 (configuration not stated),139 to 140 °C

row,Structure (SMILES),melting point
1,CCOC(=O)CNc1c(C(C)C)cc(C(O)(C(F)(F)F)C(F)(F)F)cc1C(C)C,72 to 73 °C
2,O=C(Nc1ccc(Oc2ccnc(NCCN3CCOCC3)n2)c2ccccc12)c1cc(F)cc(N2CCOCC2)c1,112 to 114 °C
3,Cc1cc(OCC(F)(F)F)c(Cl)cc1[N+](=O)[O-],76 to 79 °C
4,O=C1NC(=O)C(c2ccc(OCCC(c3ccccc3)(c3ccccc3)c3ccccc3)cc2)S1 (configuration not stated),85 to 87 °C
5,Cc1cn(-c2ccc(S(N)(=O)=O)c(F)c2)c(-c2ccc(-c3cscn3)cc2)n1,145 to 147 °C
6,CS(=O)(=O)N(c1cc(F)c(F)cc1C#N)S(C)(=O)=O,144 °C
7,CC(C)(C)OC(=O)NC1CCCCCC=CC2CC2(C(=O)NS(=O)(=O)C2CC2)NC(=O)C2CC(OC(=O)c3ccc4c(c3)OCCO4)CN2C1=O (configuration not stated),199 to 201 °C
8,CCN(S(=O)(=O)NC(=O)N1N=C(C)CC1c1ccccc1)S(=O)(=O)N(C)C (configuration not stated),138 to 139 °C
9,CC(C)(C)c1cc(I)c(O)c(C=O)c1,77 °C
10,C=C(C)CNc1cc(C(=O)O)cc(S(N)(=O)=O)c1Sc1ccc(NC(C)=O)cc1,193 to 195 °C
11,O=C(NC(=O)c1cccnc1Cl)Nc1cc(Cl)c(OC(F)(F)C(Cl)Cl)c(Cl)c1,189 to 192 °C
12,CSc1ncc2cc(C)c(=O)[nH]c2n1,243 to 245 °C
13,NC(N)=Nc1nc(-c2cccc(N)n2)cs1,242 °C
14,NC(=S)NC1CCCc2sccc21 (configuration not stated),129 to 131 °C
15,Cc1c(C(=O)Nc2ccc(N3CCC(N4CCOCC4)CC3)c(C#N)c2)cnn1-c1ccccc1Cl,218 °C
16,CCOc1nc(NCc2ccco2)nc(Nc2ccc3[nH]c(C(F)(F)F)nc3c2)n1,188 to 190 °C
17,C1CNCCNCCNCNCCNC1,49 to 51 °C
18,O=C(O)c1c[nH]c2cc(C(F)(F)F)nn2c1=O,> 340 °C
19,Cc1ccc2c(c1)sc1ncc(C=O)n12,170 to 171 °C
20,O=P1(c2cccc(C(F)(F)F)c2)c2ccccc2CN1c1ccccc1 (configuration not stated),48 to 51 °C
21,Cc1ccsc1NC(=O)NCC(=O)N(CC(=O)N(C)c1ccccc1)c1ccccc1,172 °C
22,O=[N+]([O-])C(=Cc1ccco1)C1=NCCN1CC1CCOC1 (configuration not stated),115 to 117 °C
23,CC(=O)NCCNC(=O)c1ccc(Br)o1,175 to 176 °C
24,COc1ccc(-c2cc3c(OC)cc(OC)cc3nc2OC)cc1,106 to 107 °C
